Tests used:
Magnaporthe grisea = test: whole plant or invertebrate; type: in vivo; conditions: Blast on rice; class of control value
Alternaia brassicicola = test: Test Example C: Alternaria sooty spot on cabbage; type: in vivo; conditions: Alternaria sooty spot on cabbage; class of control value
Text: Seeds of a test plant (cabbage variety: Shikidori) were planted and cultivated until the cotyledons extended.
<Control Value> Control value=100{1−(n/3)}

Puccinia recondita = test: Test Example E: Brown rust on wheat; type: in vivo; conditions: Brown rust on wheat; class of control value
Phytophthora infestans = test: whole plant or invertebrate; type: in vivo; conditions: Late blight on tomato; class of control value
Botrytis cinerea = test: Test Example B: Gray mold on tomato; conditions: Gray mold on tomato; class of control value
Plasmopara viticola = test: Test Example G: Downy mildew on vine; conditions: Downy mildew on vine (Neomuscat); 250 ppm spray, 2.5 ml/pot; assessed 7 to 10 days after inoculation
[1] = test system: Colletotrichum orbiculare; test: Test Example H: Anthracnose on cucumber; conditions: Anthracnose on cucumber (Sagami Hanjiro); 250 ppm spray, 2.5 ml/pot; assessed 6 to 10 days after inoculation
[2] = test system: Blumeria graminis f. sp. hordei; test: Test Example D: Powdery mildew on barley; conditions: Powdery mildew on barley; class of control value

| Structure (SMILES) | Test A control value class (Magnaporthe grisea) | Test C control value class (Alternaia brassicicola) | Test E control value class (Puccinia recondita) | Test F control value class (Phytophthora infestans) | Test B control value class (Botrytis cinerea) | Test G control value class (Plasmopara viticola) | Test H control value class [1] | Test D control value class [2] |
| --- | --- | --- | --- | --- | --- | --- | --- | --- |
| CCC(=O)c1cc(Cl)c(=O)n(CC)c1-c1c(F)cc(F)cc1F [compound 49] | H (more than 50% control value) | H (more than 50% control value) | H (more than 50% control value) | L (50% or less control value) | H (more than 50% control value) | L (50% or less control value) | H (more than 50% control value) | H (more than 50% control value) |
| CCC(O)c1cc(Cl)c(=O)n(CC)c1-c1c(F)cc(OC)cc1F (stereo not shown) [compound 50] | H (more than 50% control value) | H (more than 50% control value) | H (more than 50% control value) | L (50% or less control value) | H (more than 50% control value) | H (more than 50% control value) | H (more than 50% control value) | L (50% or less control value) |
| CCC(=O)c1cc(Cl)c(=O)n(CC)c1-c1c(F)cc(OC)cc1F [compound 51] | H (more than 50% control value) | H (more than 50% control value) | H (more than 50% control value) | L (50% or less control value) | H (more than 50% control value) | L (50% or less control value) | H (more than 50% control value) | H (more than 50% control value) |
| CCn1c(-c2c(F)cc(F)cc2F)c(C(C)(O)CC)cc(Cl)c1=O (stereo not shown) [compound 52] | H (more than 50% control value) | H (more than 50% control value) | H (more than 50% control value) | L (50% or less control value) | H (more than 50% control value) | H (more than 50% control value) | H (more than 50% control value) | H (more than 50% control value) |
| CCn1c(-c2c(F)cc(F)cc2F)c(C(C)(CC)OC)cc(Cl)c1=O (stereo not shown) [compound 54] | H (more than 50% control value) | H (more than 50% control value) | H (more than 50% control value) | L (50% or less control value) | H (more than 50% control value) | L (50% or less control value) | H (more than 50% control value) | H (more than 50% control value) |
| CCn1c(-c2c(F)cc(OC)cc2F)c(C(C)(CC)OC)cc(Cl)c1=O (stereo not shown) [compound 55] | H (more than 50% control value) | H (more than 50% control value) | H (more than 50% control value) | L (50% or less control value) | H (more than 50% control value) | L (50% or less control value) | H (more than 50% control value) | H (more than 50% control value) |
| CCn1c(-c2c(F)cc(F)cc2F)c(C(C)(F)CC)cc(Cl)c1=O (stereo not shown) [compound 56] | H (more than 50% control value) | H (more than 50% control value) | H (more than 50% control value) | L (50% or less control value) | H (more than 50% control value) | H (more than 50% control value) | H (more than 50% control value) | H (more than 50% control value) |
| CCn1c(-c2c(F)cccc2F)c(COC(C)C)cc(Cl)c1=O [compound 57] | L (50% or less control value) | H (more than 50% control value) | H (more than 50% control value) | L (50% or less control value) | H (more than 50% control value) | L (50% or less control value) | H (more than 50% control value) | H (more than 50% control value) |
| CCn1c(-c2c(F)cc(F)cc2F)c(COC(C)C)cc(Cl)c1=O [compound 58] | H (more than 50% control value) | H (more than 50% control value) | H (more than 50% control value) | L (50% or less control value) | H (more than 50% control value) | L (50% or less control value) | H (more than 50% control value) | H (more than 50% control value) |
| CCn1c(-c2c(F)cc(OC)cc2F)c(C(C)(O)CC)cc(Cl)c1=O (stereo not shown) [compound 59] | H (more than 50% control value) | H (more than 50% control value) | H (more than 50% control value) | L (50% or less control value) | H (more than 50% control value) | H (more than 50% control value) | H (more than 50% control value) | H (more than 50% control value) |
| CCn1c(-c2c(F)cc(OC)cc2F)c(COC(C)C)cc(Cl)c1=O [compound 60] | H (more than 50% control value) | H (more than 50% control value) | H (more than 50% control value) | L (50% or less control value) | H (more than 50% control value) | H (more than 50% control value) | H (more than 50% control value) | H (more than 50% control value) |
| CCn1c(-c2c(F)cc(OC)cc2F)c(C(C)(F)CC)cc(Cl)c1=O (stereo not shown) [compound 61] | H (more than 50% control value) | H (more than 50% control value) | H (more than 50% control value) | L (50% or less control value) | H (more than 50% control value) | H (more than 50% control value) | H (more than 50% control value) | H (more than 50% control value) |
| CCOCc1cc(Cl)c(=O)n(CC)c1-c1c(F)cccc1F [compound 62] | H (more than 50% control value) | H (more than 50% control value) | H (more than 50% control value) | L (50% or less control value) | H (more than 50% control value) | H (more than 50% control value) | H (more than 50% control value) | H (more than 50% control value) |
| CCn1c(-c2c(F)cccc2F)c(C(OC)C(C)C)cc(Cl)c1=O (stereo not shown) [compound 63] | H (more than 50% control value) | H (more than 50% control value) | H (more than 50% control value) | L (50% or less control value) | H (more than 50% control value) | H (more than 50% control value) | H (more than 50% control value) | H (more than 50% control value) |
